Test results as given in ChEMBL document CHEMBL1781894, “Dibenzocyclooctadiene lignans with antineurodegenerative potential from Kadsura ananosma” (2011).

Assays:
[1] = tested on: SH-SY5Y; assay: Neuroprotective activity against H2O2-induced neurotoxicity in human SH-SY5Y cells assessed as cell survival at 1 uM incubated for 2 hrs before H2O2 challenge measured after 24 hrs by MTT assay; assay type: functional; conditions: for viability at 1 µM: Homo sapiens, SH-SY5Y, read-out: Activity
[2] = tested on: SH-SY5Y; assay: Neuroprotective activity against H2O2-induced neurotoxicity in human SH-SY5Y cells assessed as cell survival at 10 uM incubated for 2 hrs before H2O2 challenge measured after 24 hrs by MTT assay; assay type: functional; conditions: for viability at 10 µM: Homo sapiens, SH-SY5Y, read-out: Activity

Row | Compound | viability at 1 µM [1] [%] | viability at 10 µM [2] [%] | Activity [1] [%] | Activity [2] [%]
1 | COc1cc2c(c(OC)c1OC)-c1c(cc3c(c1OC)OCO3)[C@H](O)[C@H](C)[C@H](C)C2 [ISOGOMISIN O] | 56.9 | 56.7 | – | –
2 | C/C=C(/C)C(=O)O[C@H]1c2cc(OC)c(OC)c(OC)c2-c2c(cc3c(c2OC)OCO3)[C@H](OC(=O)CCC)[C@H](C)[C@@H]1C [ANANOLIGNAN N] | 75 | 66.8 | – | –
3 | COc1cc2c(c(OC)c1OC)-c1c(cc3c(c1OC)OCO3)[C@H](OC(C)=O)[C@H](C)[C@H](C)C2 (stereo in doubt; 1) [KADSURIN] | 58.9 | 51.7 | – | –
4 | COc1cc2c(c(OC)c1OC)-c1c(cc3c(c1OC)OCO3)[C@H](O)[C@@H](C)[C@@H](C)C2 [YUNNANKADSURIN B] | 41.7 | 60.1 | – | –
5 | COc1cc2c(c(OC)c1OC)-c1c(cc3c(c1OC)OCO3)[C@H](O)[C@H](C)[C@H](C)[C@@H]2O [ANANOLIGNAN C] | 57.7 | 59.6 | – | –
6 | COc1cc2c(c(OC)c1OC)-c1c(cc3c(c1OC)OCO3)[C@H](OC(=O)C(C)C)[C@H](C)[C@H](C)[C@H]2OC(C)=O [ANANOLIGNAN H] | 64.1 | 63.9 | – | –
7 | CCCC(=O)O[C@H]1c2cc3c(c(OC)c2-c2c(cc(OC)c(OC)c2OC)[C@H](OC(C)=O)[C@@H](C)[C@H]1C)OCO3 [ANANOLIGNAN I] | 61.1 | 60.1 | – | –
8 | COc1cc2c(c(OC)c1OC)-c1c(cc3c(c1OC)OCO3)[C@H](OC(C)=O)[C@H](C)[C@H](C)[C@@H]2O [ANANOLIGNAN D] | 64.3 | 63 | – | –
9 | COc1cc2c(c(OC)c1OC)-c1c(cc3c(c1OC)OCO3)[C@H](O)[C@H](C)[C@H](C)[C@H]2OC(C)=O [ANANOLIGNAN E] | 62 | 56.3 | – | –
10 | COc1cc2c(c(OC)c1OC)-c1c(cc3c(c1OC)OCO3)[C@H](OC(C)=O)[C@H](C)[C@H](C)C2 (stereo in doubt; 16) [KADSURIN] | – | – | 56.3 | 49.7
11 | C/C=C(\C)C(=O)O[C@H]1c2cc(OC)c(OC)c(OC)c2-c2c(cc3c(c2OC)OCO3)[C@H](OC(C)=O)[C@H](C)[C@@H]1C [ANANOLIGNAN L] | 79.2 | 66.9 | – | –
12 | COc1cc2c(c(OC)c1OC)-c1c(cc3c(c1OC)OCO3)[C@H](OC(=O)c1ccccc1)[C@H](C)[C@H](C)[C@H]2OC(C)=O [ANANOLIGNAN K] | 68.9 | 71.4 | – | –
13 | COc1cc2c(c(OC)c1OC)-c1c(cc3c(c1OC)OCO3)[C@@H](OC(C)=O)[C@@H](C)[C@H](C)C2=O [ANANOLIGNAN B] | 59.7 | 69.6 | – | –
14 | COc1cc2c(c(OC)c1OC)-c1c(cc3c(c1OC)OCO3)[C@H](OC(C)=O)[C@H](C)[C@H](C)[C@H]2OC(C)=O [ANANOLIGNAN F] | 90 | 88.6 | – | –
15 | C/C=C(/C)C(=O)O[C@H]1c2cc(OC)c(OC)c(OC)c2-c2c(cc3c(c2OC)OCO3)[C@H](OC(=O)C(C)C)[C@H](C)[C@@H]1C [ANANOLIGNAN M] | 74 | 64.5 | – | –
16 | C/C=C(\C)C(=O)O[C@H]1c2cc(OC)c(OC)c(OC)c2-c2c(cc3c(c2OC)OCO3)[C@H](O)[C@H](C)[C@@H]1C [ANANOSIN A] | 66.4 | 68.2 | – | –
17 | CCC(=O)O[C@H]1c2cc3c(c(OC)c2-c2c(cc(OC)c(OC)c2OC)[C@H](OC(C)=O)[C@@H](C)[C@H]1C)OCO3 [ANANOLIGNAN G] | 57.7 | 56.7 | – | –
18 | CCC(C)C(=O)O[C@H]1c2cc3c(c(OC)c2-c2c(cc(OC)c(OC)c2OC)[C@H](OC(C)=O)[C@@H](C)[C@H]1C)OCO3 (stereo partly drawn) [ANANOLIGNAN J] | 52.2 | 55.1 | – | –
19 | C/C=C(/C)C(=O)O[C@H]1c2cc(OC)c(OC)c(OC)c2-c2c(cc3c(c2OC)OCO3)[C@H](OC(C)=O)[C@H](C)[C@@H]1C [INTERIOTHERIN C] | 45.7 | 53.6 | – | –
